# According to the supplement of paper PMC13380429:
# What was measured:
# Conditions in all cases: 72 h
# Calu-3 [1] = test: relative viability EC50 (midpoint between 100% and the lowest measured viability); higher = less toxic
# Vero E6 [2] = test: as above
# Caco-2 [3] = test: as above
# U2OS [4] = test: as above
# HepG2 [5] = test: as above
# Calu-3 [6] = test: drug sensitivity score (DSS) for viability; higher = more toxic; extreme values may be limits of the assay
# Vero E6 [7] = test: as above
# Caco-2 [8] = test: as above
# U2OS [9] = test: as above
# HepG2 [10] = test: as above
# Calu-3 [11] = test: cell viability relative to DMSO; higher = less toxic
# Vero E6 [12] = test: as above
# Caco-2 [13] = test: as above
# U2OS [14] = test: as above
# HepG2 [15] = test: as above
Structure (SMILES),relative viability EC50 (Calu-3 [1]),relative viability EC50 (Vero E6 [2]),relative viability EC50 (Caco-2 [3]),relative viability EC50 (U2OS [4]),relative viability EC50 (HepG2 [5]),drug sensitivity score (Calu-3 [6]),drug sensitivity score (Vero E6 [7]),drug sensitivity score (Caco-2 [8]),drug sensitivity score (U2OS [9]),drug sensitivity score (HepG2 [10]),cell viability (Calu-3 [11]; 1 nM),cell viability (Calu-3 [11]; 10 nM),cell viability (Calu-3 [11]; 100 nM),cell viability (Calu-3 [11]; 1000 nM),cell viability (Calu-3 [11]; 10000 nM),cell viability (Vero E6 [12]; 1 nM),cell viability (Vero E6 [12]; 10 nM),cell viability (Vero E6 [12]; 100 nM),cell viability (Vero E6 [12]; 1000 nM),cell viability (Vero E6 [12]; 10000 nM),cell viability (Caco-2 [13]; 1 nM),cell viability (Caco-2 [13]; 10 nM),cell viability (Caco-2 [13]; 100 nM),cell viability (Caco-2 [13]; 1000 nM),cell viability (Caco-2 [13]; 10000 nM),cell viability (U2OS [14]; 1 nM),cell viability (U2OS [14]; 10 nM),cell viability (U2OS [14]; 100 nM),cell viability (U2OS [14]; 1000 nM),cell viability (U2OS [14]; 10000 nM),cell viability (HepG2 [15]; 1 nM),cell viability (HepG2 [15]; 10 nM),cell viability (HepG2 [15]; 100 nM),cell viability (HepG2 [15]; 1000 nM),cell viability (HepG2 [15]; 10000 nM)
NC(=O)Cc1cccc(C(=O)c2ccccc2)c1N [nepafenac],> 10 µM,> 10 µM,> 10 µM,> 10 µM,> 10 µM,0,0,0,0,0,101%,97.9%,95.6%,95.3%,97.9%,106%,104%,106%,99.3%,102%,96.6%,94.9%,90.7%,102%,90.7%,99.5%,102%,94.5%,98.8%,93.5%,116%,94.8%,100%,99.9%,105%
NC(=O)c1cc([N+](=O)[O-])cc([N+](=O)[O-])c1 [nitromide],> 10 µM,> 10 µM,> 10 µM,> 10 µM,> 10 µM,0,0,0,0,0,93.9%,101%,95%,105%,112%,98.3%,96.6%,93.6%,94.5%,108%,97.5%,95.2%,95.8%,104%,104%,100%,98.4%,101%,96.5%,107%,112%,95.1%,99.7%,119%,104%
CNC(=O)N(C)N=O [nitrosodimethylurea],> 10 µM,> 10 µM,> 10 µM,> 10 µM,> 10 µM,0,0,0,0,0,111%,103%,100%,91.6%,109%,93.6%,92.4%,95.4%,86.3%,97.9%,85.7%,106%,94.7%,86.9%,116%,99.8%,95.7%,95.1%,98%,108%,88.6%,100%,103%,100%,97.7%
C/C=C1/[C@H](O[C@@H]2O[C@H](CO)[C@@H](O)[C@H](O)[C@H]2O)OC=C(C(=O)OC)[C@H]1CC(=O)OCCc1ccc(O)c(O)c1 [oleuropein],> 10 µM,> 10 µM,> 10 µM,> 10 µM,> 10 µM,0,0,0,0,0.1,90.8%,98.8%,101%,102%,93.6%,98.8%,103%,98.7%,105%,95.2%,101%,108%,99.9%,101%,88.8%,105%,98.7%,101%,95.1%,97.8%,101%,97.1%,98.1%,108%,84.4%
Cc1nccn1CC1CCc2c(c3ccccc3n2C)C1=O (stereo not given) [ondansetron],> 10 µM,> 10 µM,> 10 µM,> 10 µM,> 10 µM,0,0,0,0,0,84.8%,90.1%,81.6%,97.6%,89.2%,101%,97.4%,103%,95.6%,103%,102%,99.4%,94.1%,81.2%,104%,96.5%,99.4%,103%,99.4%,102%,95.6%,83.5%,97%,105%,93.3%
C[C@@H]1CN(c2c(F)c(F)c3c(=O)c(C(=O)O)cn(C4CC4)c3c2F)C[C@H](C)N1 [orbifloxacin],> 10 µM,> 10 µM,> 10 µM,> 10 µM,> 10 µM,0,0,0,0,0,113%,97.9%,112%,92.8%,107%,105%,110%,101%,100%,94.5%,110%,105%,109%,103%,94.6%,99.5%,97.5%,95.3%,97.6%,101%,98.2%,110%,94.8%,100%,92.1%
CCn1cc(C(=O)O)c(=O)c2cc3c(cc21)OCO3 [oxolinic-acid],> 10 µM,> 10 µM,> 10 µM,> 10 µM,> 10 µM,0,0,0.6,0,0,89.1%,99.9%,94.2%,106%,93.2%,98.5%,109%,109%,93.6%,95%,109%,98.9%,85.3%,102%,78.4%,101%,101%,96.2%,103%,97%,97%,108%,113%,108%,94.1%
O=C(O)/C=C/c1ccc(Cn2ccnc2)cc1 [ozagrel],> 10 µM,> 10 µM,> 10 µM,> 10 µM,> 10 µM,0,0,0,0,0,98%,100%,99.7%,106%,92.3%,97.5%,103%,95.2%,101%,101%,92.4%,101%,96.7%,98.6%,94.9%,97.8%,100%,95.1%,99.7%,93.2%,95%,91.9%,101%,95.7%,100%
C1=N/C2=N/c3ccc(OCCN4CCCC4)c(c3)COC/C=C/COCc3cccc(c3)C(=C1)N2 [pacritinib],3.34 µM,2.71 µM,1.9 µM,2.3 µM,2.51 µM,3.8,5.9,6.1,7.1,6.7,104%,96.5%,95.6%,102%,27.8%,96.3%,94.9%,94.7%,94.7%,7.2%,88.9%,95.2%,94.6%,87.7%,26%,90.3%,91.6%,101%,89.7%,1.5%,94.2%,102%,89.4%,92.1%,0.8%
Cc1[nH]c2ccccc2c1CCNCc1ccc(/C=C/C(=O)NO)cc1 [panobinostat],0.175 µM,0.142 µM,0.136 µM,0.127 µM,0.052 µM,19.4,22.3,22.3,22.6,26.6,113%,113%,67.8%,17.5%,6%,101%,97.8%,70.8%,-0.4%,-0.5%,99.8%,110%,68.4%,1%,1.1%,99.2%,97%,62.4%,1.4%,0.8%,104%,80.6%,36.8%,-0.3%,-0.4%
C[N+]1(CCCCC[N+]2(C)CCCC2)CCCC1 [pentolinium],> 10 µM,> 10 µM,> 10 µM,> 10 µM,> 10 µM,0.3,0,0,0,0,97.1%,91.2%,110%,94%,88.1%,96.3%,105%,102%,101%,108%,99%,109%,124%,107%,88.7%,94.2%,98.7%,100%,99.2%,102%,79.4%,99.3%,96%,112%,97.6%
CC(=O)O[C@H]1C[C@@H]2CC[C@@H]3[C@H](CC[C@@]4(C)[C@H]3C[C@H](N3CC[N+](C)(C)CC3)[C@@H]4OC(C)=O)[C@@]2(C)C[C@@H]1N1CC[N+](C)(C)CC1 [pipecuronium],> 10 µM,> 10 µM,> 10 µM,> 10 µM,> 10 µM,0,0,0,0,0,87.8%,102%,90.2%,111%,96.7%,100%,94.7%,92.5%,95.5%,99.2%,93.7%,103%,91.2%,96.7%,97%,101%,104%,97.7%,105%,96.9%,97.8%,94.2%,97.4%,96.8%,92.3%
C#CCC(Cc1cnc2nc(N)nc(N)c2n1)c1ccc(C(=O)N[C@@H](CCC(=O)O)C(=O)O)cc1 (stereo not given in full) [pralatrexate],> 10 µM,0.0036 µM,0.0164 µM,> 10 µM,0.0038 µM,0.8,36.7,16.7,0,35.4,107%,102%,91.4%,88.2%,93.6%,98.9%,19.2%,14.4%,16.7%,14.2%,97%,81.8%,55.3%,49.6%,56.2%,105%,76.8%,97.2%,90%,98.6%,99.2%,22.9%,21.3%,17.8%,17.1%
C[C@]12C=CC(=O)C=C1CC[C@@H]1[C@@H]2[C@@H](O)C[C@@]2(C)[C@H]1CC[C@]2(O)C(=O)COP(=O)(O)O [prednisolone-sodium-phosphate],> 10 µM,> 10 µM,> 10 µM,> 10 µM,> 10 µM,0,0,0,0,0,97.4%,92.7%,101%,82.5%,106%,102%,103%,108%,101%,89.6%,99.6%,89.5%,98.4%,92.8%,91.7%,95.1%,105%,97.9%,90.8%,97%,100%,100%,104%,99.2%,100%
